Source: patent US20220324815A1, “2-PHENOXY-PYRIMIDINE DERIVATIVES AS HERBICIDAL COMPOUNDS” (SYNGENTA CROP PROTECTION AG, priority 2019, published 2022)

Columns and labels:
Assay type in all cases: in vivo
Conditions in all cases: 250 g/ha unless otherwise stated, evaluated after 13 days, five-point scale
[1] = test system: Ipomoea hederacea (IPOHE); experiment: Test 1 glasshouse herbicide test, pre-emergence application (Table B2)
Outline: (§1)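 Pots sown in standard soil; sprayed 1 day (pre-emergence) or 8 days (post-emergence) after sowing at 250 g/ha unless stated, in acetone/water (50:50) with 0.5% Tween 20. Glasshouse 24/16 °C, 14 h light, 65% humidity; damage scored at 13 days on a 1–5 scale (5=81–100%, 1=0–20%).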

Lolium perenne (LOLPE) [2] = experiment: as above
Outline: as §1

Setaria faberi (SETFA) [3] = experiment: as above
Outline: as §1

[4] = test system: Amaranthus retoflexus (AMARE); experiment: as above
Outline: as §1

Solanum nigrum (SOLNI) [5] = experiment: as above
Outline: as §1

[6] = test system: Echinochloa crus-galli (ECHCG); experiment: as above
Outline: as §1

[7] = test system: Ipomoea hederacea (IPOHE); experiment: Test 1 glasshouse herbicide test, post-emergence application (Table B1)
Outline: as §1

Lolium perenne (LOLPE) [8] = experiment: as above
Outline: as §1

Setaria faberi (SETFA) [9] = experiment: as above
Outline: as §1

[10] = test system: Amaranthus retoflexus (AMARE); experiment: as above
Outline: as §1

Solanum nigrum (SOLNI) [11] = experiment: as above
Outline: as §1

[12] = test system: Echinochloa crus-galli (ECHCG); experiment: as above
Outline: as §1

SMILES	% phytotoxicity IPOHE, pre-emergence application [1]	% phytotoxicity LOLPE, pre-emergence application (Lolium perenne (LOLPE) [2])	% phytotoxicity SETFA, pre-emergence application (Setaria faberi (SETFA) [3])	% phytotoxicity AMARE, pre-emergence application [4]	% phytotoxicity SOLNI, pre-emergence application (Solanum nigrum (SOLNI) [5])	% phytotoxicity ECHCG, pre-emergence application [6]	% phytotoxicity IPOHE, post-emergence application [7]	% phytotoxicity LOLPE, post-emergence application (Lolium perenne (LOLPE) [8])	% phytotoxicity SETFA, post-emergence application (Setaria faberi (SETFA) [9])	% phytotoxicity AMARE, post-emergence application [10]	% phytotoxicity SOLNI, post-emergence application (Solanum nigrum (SOLNI) [11])	% phytotoxicity ECHCG, post-emergence application [12]
Fc1cccc(Oc2ncc(Cl)cn2)c1SCCC(F)(F)F [Compound A7]	2 (2=21 to 40%)	4 (4=61 to 80%)	5 (5=81 to 100%)	5 (5=81 to 100%)	4 (4=61 to 80%)	5 (5=81 to 100%)	2 (2=21 to 40%)	2 (2=21 to 40%)	5 (5=81 to 100%)	5 (5=81 to 100%)	5 (5=81 to 100%)	4 (4=61 to 80%)
O=S(=O)(CCC(F)(F)F)c1c(F)cccc1Oc1ncc(Cl)cn1 [Compound A9]	4 (4=61 to 80%)	4 (4=61 to 80%)	5 (5=81 to 100%)	5 (5=81 to 100%)	5 (5=81 to 100%)	4 (4=61 to 80%)	3 (3=41 to 60%)	3 (3=41 to 60%)	4 (4=61 to 80%)	5 (5=81 to 100%)	5 (5=81 to 100%)	3 (3=41 to 60%)
O=S(=O)(CCCC(F)(F)F)c1c(Cl)cccc1Oc1ncc(Cl)cn1 [Compound A24]	5 (5=81 to 100%)	4 (4=61 to 80%)	5 (5=81 to 100%)	5 (5=81 to 100%)	5 (5=81 to 100%)	5 (5=81 to 100%)	5 (5=81 to 100%)	5 (5=81 to 100%)	5 (5=81 to 100%)	5 (5=81 to 100%)	5 (5=81 to 100%)	5 (5=81 to 100%)
[O-][S+](CCC(F)(F)F)c1ccccc1Oc1ncc(Cl)cn1 (stereo not drawn) [Compound A2]	2 (2=21 to 40%)	3 (3=41 to 60%)	5 (5=81 to 100%)	5 (5=81 to 100%)	5 (5=81 to 100%)	5 (5=81 to 100%)	4 (4=61 to 80%)	4 (4=61 to 80%)	4 (4=61 to 80%)	5 (5=81 to 100%)	5 (5=81 to 100%)	4 (4=61 to 80%)
[O-][S+](CCC(F)(F)F)c1c(Cl)cccc1Oc1ncc(Cl)cn1 (stereo not drawn) [Compound A11]	5 (5=81 to 100%)	5 (5=81 to 100%)	5 (5=81 to 100%)	5 (5=81 to 100%)	5 (5=81 to 100%)	5 (5=81 to 100%)	5 (5=81 to 100%)	4 (4=61 to 80%)	5 (5=81 to 100%)	5 (5=81 to 100%)	5 (5=81 to 100%)	5 (5=81 to 100%)
O=S(=O)(CCC(F)(F)F)c1c(Cl)cccc1Oc1ncc(Cl)cn1 [Compound A12]	5 (5=81 to 100%)	5 (5=81 to 100%)	5 (5=81 to 100%)	5 (5=81 to 100%)	5 (5=81 to 100%)	5 (5=81 to 100%)	4 (4=61 to 80%)	5 (5=81 to 100%)	5 (5=81 to 100%)	5 (5=81 to 100%)	5 (5=81 to 100%)	5 (5=81 to 100%)
Clc1cnc(Oc2ccccc2SCc2ccccc2)nc1 [Compound A16]	1 (1=0 to 20%)	1 (1=0 to 20%)	2 (2=21 to 40%)	4 (4=61 to 80%)	1 (1=0 to 20%)	2 (2=21 to 40%)	1 (1=0 to 20%)	1 (1=0 to 20%)	2 (2=21 to 40%)	4 (4=61 to 80%)	3 (3=41 to 60%)	1 (1=0 to 20%)
N#Cc1cccc(Oc2ncc(Cl)cn2)c1SCCCC(F)(F)F [Compound A28, 3-(5-chloropyrimidin-2-yl)oxy-2-(4,4,4-trifluorobutylsulfanyl)benzonitrile]	5 (5=81 to 100%)	5 (5=81 to 100%)	5 (5=81 to 100%)	5 (5=81 to 100%)	5 (5=81 to 100%)	5 (5=81 to 100%)	5 (5=81 to 100%)	5 (5=81 to 100%)	5 (5=81 to 100%)	5 (5=81 to 100%)	5 (5=81 to 100%)	5 (5=81 to 100%)
[O-][S+](CCCC(F)(F)F)c1c(Cl)cccc1Oc1ncc(Cl)cn1 (stereo not drawn) [Compound A26]	5 (5=81 to 100%)	5 (5=81 to 100%)	5 (5=81 to 100%)	5 (5=81 to 100%)	5 (5=81 to 100%)	5 (5=81 to 100%)	5 (5=81 to 100%)	5 (5=81 to 100%)	5 (5=81 to 100%)	5 (5=81 to 100%)	5 (5=81 to 100%)	5 (5=81 to 100%)
